How the values were obtained:
velvetleaf = experiment: Test B pre/postemergence velvetleaf; type: in vivo, Abutilon theophrasti
Source text: (§1) Seeds of bedstraw (Galium aparine), blackgrass (Alopecurus myosuroides), surinam grass (Brachiaria decumbens), cocklebur (Xanthium strumarium), corn (Zea mays), crabgrass (Digitaria sanguinalis), giant foxtail (Setaria faberii), morningglory (Ipomoea hederacea), pigweed (Amaranthus retroflexus), rape (Brassica napus), soybean (Glycine max), sugar beet (Beta vulgaris), velvetleaf (Abutilon theophrasti), wheat (Triticum aestivum), wild oat (Avena fatua) and purple nutsedge (Cyperus rotundus) tubers were planted and treated preemnergence with test chemicals formulated in a non-phytotoxic solvent mixture which included a surfactant.
(§2) At the same time, these crop and weed species were also treated with postemergence applications of test chemicals formulated in the same manner. Plants ranged in height from 2 to 18 cm (1- to 4-leaf stage) for postemergence treatments. Plant species in the flood test consisted of rice (Oryza sativa), smallflower flatsedge (Cyperus difformis), duck salad (Heteranthera limosa) and bamyardgrass (Echinochloa crus-galli) grown to the 2-leaf stage for testing. Treated plants and controls were maintained in a greenhouse for twelve to sixteen days, after which all species were compared to controls and visually evaluated. Plant response ratings, summarized in Table B, are based on a scale of 0 to 10 where 0 is no effect and 10 is complete control. A dash (−) response means no test result.

rape = experiment: Test B pre/postemergence rape; type: in vivo, Brassica napus
Source text: as §1, §2

wheat = experiment: Test B pre/postemergence wheat; type: in vivo, Triticum aestivum
Source text: as §1, §2

morningglory = experiment: Test B pre/postemergence morningglory; type: in vivo, Ipomoea hederacea
Source text: as §1, §2

surinam grass = experiment: Test B pre/postemergence surinam grass; type: in vivo, Brachiaria decumbens
Source text: as §1, §2

wild oat = experiment: Test B pre/postemergence wild oat; type: in vivo, Avena fatua
Source text: as §1, §2

cocklebur = experiment: Test B pre/postemergence cocklebur; type: in vivo, Xanthium strumarium
Source text: as §1, §2

sugar beet = experiment: Test B pre/postemergence sugar beet; type: in vivo, Beta vulgaris
Source text: as §1, §2

pigweed = experiment: Test B pre/postemergence pigweed; type: in vivo, Amaranthus retroflexus
Source text: as §1, §2

corn = experiment: Test B pre/postemergence corn; type: in vivo, Zea mays
Source text: as §1, §2

purple nutsedge = experiment: Test B pre/postemergence purple nutsedge; type: in vivo, Cyperus rotundus
Source text: as §1, §2

blackgrass = experiment: Test B pre/postemergence blackgrass; type: in vivo, Alopecurus myosuroides; details: for Plant response rating, Blackgrass: scale of 0 to 10 where 0 is no effect and 10 is complete control
Source text: as §1, §2

crabgrass = experiment: Test B pre/postemergence crabgrass; type: in vivo, Digitaria sanguinalis
Source text: as §1, §2

soybean = experiment: Test B pre/postemergence soybean; type: in vivo, Glycine max
Source text: as §1, §2

bedstraw = experiment: Test B pre/postemergence bedstraw; type: in vivo, Galium aparine
Source text: as §1, §2

giant foxtail = experiment: Test B pre/postemergence giant foxtail; type: in vivo, Setaria faberii
Source text: as §1, §2

[1] = Postemergence, Rate 125 g/ha, scale of 0 to 10 where 0 is no effect and 10 is complete control
[2] = Postemergence, Rate 250 g/ha, scale of 0 to 10, 0 is no effect, 10 is complete control
[3] = Postemergence, Rate 500 g/ha, scale of 0 to 10 where 0 is no effect and 10 is complete control
[4] = Preemergence, Rate 62 g/ha, scale 0 to 10 (0 no effect, 10 complete control)
[5] = Preemergence, Rate 125 g/ha, scale of 0 to 10 where 0 is no effect and 10 is complete control
[6] = Preemergence, Rate 500 g/ha, scale of 0 to 10 where 0 is no effect and 10 is complete control
[7] = Postemergence, Rate 62 g/ha, scale of 0 to 10, 0 is no effect, 10 is complete control

CC(C)N(C(=O)n1oc(=O)n(CCC(F)(F)F)c1=O)c1ccccc1 [Compound 584]
Plant response rating, Velvetleaf (velvetleaf; [1]): 3 | Velvetleaf plant response rating (velvetleaf; [2]): 3 | Plant response rating, Velvetleaf (velvetleaf; [3]): 5 | Velvetleaf plant response rating (velvetleaf; [4]): 0 | Velvetleaf plant response rating (velvetleaf; [5]): 0 | Velvetleaf plant response rating (velvetleaf; [6]): 5 | Rape plant response rating (rape; [7]): 3 | Plant response rating, Rape (rape; [1]): 4 | Rape plant response rating (rape; [2]): 9 | Plant response rating, Rape (rape; [3]): 9 | Rape plant response rating (rape; [4]): 3 | Rape plant response rating (rape; [5]): 4 | Rape plant response rating (rape; [6]): 4 | Plant response rating, Wheat (wheat; [1]): 2 | Wheat plant response rating (wheat; [2]): 3 | Plant response rating, Wheat (wheat; [3]): 6 | Wheat plant response rating (wheat; [4]): 0 | Wheat plant response rating (wheat; [5]): 0 | Wheat plant response rating (wheat; [6]): 3 | Morningglory plant response rating (morningglory; [7]): 1 | Plant response rating, Morningglory (morningglory; [1]): 4 | Morningglory plant response rating (morningglory; [2]): 5 | Plant response rating, Morningglory (morningglory; [3]): 3 | Morningglory plant response rating (morningglory; [4]): 4 | Morningglory plant response rating (morningglory; [5]): 4 | Morningglory plant response rating (morningglory; [6]): 3 | B. signalgrass plant response rating (surinam grass; [7]): 3 | Plant response rating, B. signalgrass (surinam grass; [1]): 3 | B. signalgrass plant response rating (surinam grass; [2]): 7 | Plant response rating, B. signalgrass (surinam grass; [3]): 9 | B. signalgrass plant response rating (surinam grass; [4]): 7 | B. signalgrass plant response rating (surinam grass; [5]): 7 | B. signalgrass plant response rating (surinam grass; [6]): 9 | Plant response rating, Wild oats (wild oat; [1]): 0 | Wild oats plant response rating (wild oat; [2]): 2 | Plant response rating, Wild oats (wild oat; [3]): 7 | Wild oats plant response rating (wild oat; [4]): 0 | Wild oats plant response rating (wild oat; [5]): 2 | Wild oats plant response rating (wild oat; [6]): 9 | Cocklebur plant response rating (cocklebur; [7]): 0 | Plant response rating, Cocklebur (cocklebur; [1]): 2 | Cocklebur plant response rating (cocklebur; [2]): 4 | Plant response rating, Cocklebur (cocklebur; [3]): 4 | Cocklebur plant response rating (cocklebur; [4]): 0 | Cocklebur plant response rating (cocklebur; [5]): 0 | Cocklebur plant response rating (0 to 10 scale) (cocklebur; Preemergence, Rate 250 g/ha): 0 | Cocklebur plant response rating (cocklebur; [6]): 0 | Plant response rating, Sugarbeets (sugar beet; [1]): 2 | Sugarbeets plant response rating (sugar beet; [2]): 5 | Plant response rating, Sugarbeets (sugar beet; [3]): 8 | Sugarbeets plant response rating (sugar beet; [4]): 0 | Sugarbeets plant response rating (sugar beet; [5]): 2 | Sugarbeets plant response rating (sugar beet; [6]): 5 | Plant response rating, Redroot pigweed (pigweed; [1]): 2 | Redroot pigweed plant response rating (pigweed; [2]): 2 | Plant response rating, Redroot pigweed (pigweed; [3]): 7 | Redroot pigweed plant response rating (pigweed; [4]): 7 | Redroot pigweed plant response rating (pigweed; [5]): 8 | Redroot pigweed plant response rating (pigweed; [6]): 9 | Corn plant response rating (corn; [7]): 0 | Plant response rating, Corn (corn; [1]): 2 | Corn plant response rating (corn; [2]): 3 | Plant response rating, Corn (corn; [3]): 4 | Corn plant response rating (corn; [4]): 0 | Corn plant response rating (corn; [5]): 0 | Corn plant response rating (0 to 10 scale) (corn; Preemergence, Rate 250 g/ha): 2 | Corn plant response rating (corn; [6]): 3 | Nutsedge plant response rating (purple nutsedge; [7]): 0 | Plant response rating, Nutsedge (purple nutsedge; [1]): 0 | Nutsedge plant response rating (purple nutsedge; [2]): 0 | Plant response rating, Nutsedge (purple nutsedge; [3]): 3 | Nutsedge plant response rating (purple nutsedge; [4]): 0 | Nutsedge plant response rating (purple nutsedge; [5]): 0 | Nutsedge plant response rating (purple nutsedge; [6]): 0 | Blackgrass plant response rating (blackgrass; [7]): 5 | Plant response rating, Blackgrass (blackgrass; Postemergence, Rate 125 g/ha): 7 | Blackgrass plant response rating (blackgrass; [2]): 7 | Plant response rating, Blackgrass (blackgrass; Postemergence, Rate 500 g/ha): 7 | Blackgrass plant response rating (blackgrass; [4]): 9 | Blackgrass plant response rating (0 to 10 scale) (blackgrass; Preemergence, Rate 250 g/ha): 8 | Crabgrass plant response rating (crabgrass; [7]): 1 | Plant response rating, Crabgrass (crabgrass; [1]): 7 | Crabgrass plant response rating (crabgrass; [2]): 6 | Plant response rating, Crabgrass (crabgrass; [3]): 9 | Crabgrass plant response rating (crabgrass; [4]): 8 | Crabgrass plant response rating (crabgrass; [5]): 8 | Crabgrass plant response rating (crabgrass; [6]): 9 | Plant response rating, Soybean (soybean; [1]): 3 | Soybean plant response rating (soybean; [2]): 3 | Plant response rating, Soybean (soybean; [3]): 4 | Soybean plant response rating (soybean; [4]): 0 | Soybean plant response rating (soybean; [5]): 0 | Soybean plant response rating (soybean; [6]): 0 | Bedstraw plant response rating (bedstraw; [7]): 5 | Plant response rating, Bedstraw (bedstraw; [1]): 5 | Bedstraw plant response rating (bedstraw; [2]): 9 | Bedstraw plant response rating (bedstraw; [4]): 9 | Bedstraw plant response rating (0 to 10 scale) (bedstraw; Preemergence, Rate 250 g/ha): 9 | Bedstraw plant response rating (bedstraw; [6]): 9 | Giant foxtail plant response rating (giant foxtail; [7]): 7 | Plant response rating, Giant foxtail (giant foxtail; [1]): 8 | Giant foxtail plant response rating (giant foxtail; [2]): 9 | Plant response rating, Giant foxtail (giant foxtail; [3]): 9 | Giant foxtail plant response rating (giant foxtail; [4]): 9 | Giant foxtail plant response rating (giant foxtail; [5]): 8 | Giant foxtail plant response rating (giant foxtail; [6]): 10

Source: US6737383B1, “Herbicidal oxadiazolidines” (priority 1999, dated 2004)
